In ChEMBL document CHEMBL1135452, “Side-chain homologation of nodulisporic acid: synthesis of potent new dienyl derivatives” (Bioorg Med Chem Lett, 2002):

Tested on: Pulicinae
Assay: In vitro systemic flea efficacy using membrane feeding assay.
Assay type: functional

C=C(C)[C@H]1C(=O)c2c3c(cc4c5c(n1c24)[C@@]1(C)C(CC[C@H]2[C@](C)(/C=C/C=C(\OC)C(=O)O)[C@@H](O)CC[C@@]21C)C5)C1=CC(C)(C)OC(C)(C)C1[C@@H]3O (some centres undefined) and C=C(C)[C@H]1C(=O)c2c3c(cc4c5c(n1c24)[C@@]1(C)C(CC[C@H]2[C@](C)(/C=C/C=C(\OC)C(N)=O)[C@@H](O)CC[C@@]21C)C5)C1=CC(C)(C)OC(C)(C)C1[C@@H]3O (some centres undefined) are the same in Activity: 10 p.p.m for the first, 10 p.p.m for the second.

C=C(C)[C@H]1C(=O)c2c3c(cc4c5c(n1c24)[C@@]1(C)C(CC[C@H]2[C@](C)(/C=C/C=C(\CC)C(=O)N(C)C)[C@@H](O)CC[C@@]21C)C5)C1=CC(C)(C)OC(C)(C)C1[C@@H]3O (some centres undefined) and C=CC/C(=C\C=C\[C@]1(C)[C@@H](O)CC[C@@]2(C)[C@H]1CCC1Cc3c(n4c5c(c6c(cc35)C3=CC(C)(C)OC(C)(C)C3[C@@H]6O)C(=O)[C@@H]4C(=C)C)[C@@]12C)C(=O)N(C)C (some centres undefined) are the same in Activity: 1 p.p.m for the first, 1 p.p.m for the second.

C=CC/C(=C\C=C\[C@]1(C)[C@@H](O)CC[C@@]2(C)[C@H]1CCC1Cc3c(n4c5c(c6c(cc35)C3=CC(C)(C)OC(C)(C)C3[C@@H]6O)C(=O)[C@@H]4C(=C)C)[C@@]12C)C(=O)NCC (some centres undefined) and C=C(C)[C@H]1C(=O)c2c3c(cc4c5c(n1c24)[C@@]1(C)C(CC[C@H]2[C@](C)(/C=C/C=C(\CC)C(=O)NCC)[C@@H](O)CC[C@@]21C)C5)C1=CC(C)(C)OC(C)(C)C1[C@@H]3O (some centres undefined) are the same in Activity: 1 p.p.m for the first, 1 p.p.m for the second.

C=C(C)[C@H]1C(=O)c2c3c(cc4c5c(n1c24)[C@@]1(C)C(CC[C@H]2[C@](C)(/C=C/C=C(\CCC)C(=O)NC(C)(C)C)[C@@H](O)CC[C@@]21C)C5)C1=CC(C)(C)OC(C)(C)C1[C@@H]3O (some centres undefined) and C=C(C)[C@H]1C(=O)c2c3c(cc4c5c(n1c24)[C@@]1(C)C(CC[C@H]2[C@](C)(/C=C/C=C(\CCCC)C(=O)NC(C)(C)C)[C@@H](O)CC[C@@]21C)C5)C1=CC(C)(C)OC(C)(C)C1[C@@H]3O (some centres undefined) are the same in Activity: 10 p.p.m for the first, 10 p.p.m for the second.

Going from C=C(C)[C@H]1C(=O)c2c3c(cc4c5c(n1c24)[C@@]1(C)C(CC[C@H]2[C@](C)(/C=C/C=C(\CC)C(=O)O)[C@@H](O)CC[C@@]21C)C5)C1=CC(C)(C)OC(C)(C)C1[C@@H]3O (some centres undefined) to C=C(C)[C@H]1C(=O)c2c3c(cc4c5c(n1c24)[C@@]1(C)C(CC[C@H]2[C@](C)(/C=C/C=C(\CC)C(N)=O)[C@@H](O)CC[C@@]21C)C5)C1=CC(C)(C)OC(C)(C)C1[C@@H]3O (some centres undefined), the Activity falls from 10 p.p.m to 1 p.p.m.

C=C(C)[C@H]1C(=O)c2c3c(cc4c5c(n1c24)[C@@]1(C)C(CC[C@H]2[C@](C)(/C=C/C=C(\CCC)C(=O)NCC)[C@@H](O)CC[C@@]21C)C5)C1=CC(C)(C)OC(C)(C)C1[C@@H]3O (stereo in doubt; 45) and C=C(C)[C@H]1C(=O)c2c3c(cc4c5c(n1c24)[C@@]1(C)C(CC[C@H]2[C@](C)(/C=C/C=C(\CCCC)C(=O)NCC)[C@@H](O)CC[C@@]21C)C5)C1=CC(C)(C)OC(C)(C)C1[C@@H]3O (some centres undefined) are the same in Activity: 1 p.p.m for the first, 1 p.p.m for the second.

C=C(C)[C@H]1C(=O)c2c3c(cc4c5c(n1c24)[C@@]1(C)C(CC[C@H]2[C@](C)(/C=C/C=C(\CCC)C(=O)NCC)[C@@H](O)CC[C@@]21C)C5)C1=CC(C)(C)OC(C)(C)C1[C@@H]3O (stereo in doubt) and C=C(C)[C@H]1C(=O)c2c3c(cc4c5c(n1c24)[C@@]1(C)C(CC[C@H]2[C@](C)(/C=C/C=C(\CCC)C(N)=O)[C@@H](O)CC[C@@]21C)C5)C1=CC(C)(C)OC(C)(C)C1[C@@H]3O (some centres undefined) are the same in Activity: 10 p.p.m for the first, 10 p.p.m for the second.

Compared with C=C(C)[C@H]1C(=O)c2c3c(cc4c5c(n1c24)[C@@]1(C)C(CC[C@H]2[C@](C)(/C=C/C=C/C(=O)N(C)C)[C@@H](O)CC[C@@]21C)C5)C1=CC(C)(C)OC(C)(C)C1[C@@H]3O (some centres undefined), C=C(C)[C@H]1C(=O)c2c3c(cc4c5c(n1c24)[C@@]1(C)C(CC[C@H]2[C@](C)(/C=C/C=C/C(=O)N(C)CC)[C@@H](O)CC[C@@]21C)C5)C1=CC(C)(C)OC(C)(C)C1[C@@H]3O (some centres undefined) is higher in Activity: 0.1 p.p.m for the first, 1 p.p.m for the second.

C=C(C)[C@H]1C(=O)c2c3c(cc4c5c(n1c24)[C@@]1(C)C(CC[C@H]2[C@](C)(/C=C/C=C(\OC)C(=O)NC(C)(C)C)[C@@H](O)CC[C@@]21C)C5)C1=CC(C)(C)OC(C)(C)C1[C@@H]3O (some centres undefined) and C=C(C)[C@H]1C(=O)c2c3c(cc4c5c(n1c24)[C@@]1(C)C(CC[C@H]2[C@](C)(/C=C/C=C(\CC)C(=O)NC(C)(C)C)[C@@H](O)CC[C@@]21C)C5)C1=CC(C)(C)OC(C)(C)C1[C@@H]3O (some centres undefined) are the same in Activity: 1 p.p.m for the first, 1 p.p.m for the second.

Going from C=C(C)[C@H]1C(=O)c2c3c(cc4c5c(n1c24)[C@@]1(C)C(CC[C@H]2[C@](C)(/C=C/C=C/P(=O)(OCC)OCC)[C@@H](O)CC[C@@]21C)C5)C1=CC(C)(C)OC(C)(C)C1[C@@H]3O (some centres undefined) to C=C(C)[C@H]1C(=O)c2c3c(cc4c5c(n1c24)[C@@]1(C)C(CC[C@H]2[C@](C)(/C=C/C=C/C(=O)OCC)[C@@H](O)CC[C@@]21C)C5)C1=CC(C)(C)OC(C)(C)C1[C@@H]3O (some centres undefined), the Activity falls from 10 p.p.m to 1 p.p.m.

C=C(C)[C@H]1C(=O)c2c3c(cc4c5c(n1c24)[C@@]1(C)C(CC[C@H]2[C@](C)(/C=C/C=C(\C#N)C(=O)N(C)C)[C@@H](O)CC[C@@]21C)C5)C1=CC(C)(C)OC(C)(C)C1[C@@H]3O (some centres undefined) and C=C(C)[C@H]1C(=O)c2c3c(cc4c5c(n1c24)[C@@]1(C)C(CC[C@H]2[C@](C)(/C=C/C=C(\C(C)=O)C(=O)N(C)C)[C@@H](O)CC[C@@]21C)C5)C1=CC(C)(C)OC(C)(C)C1[C@@H]3O (some centres undefined) are the same in Activity: 1 p.p.m for the first, 1 p.p.m for the second.

First: C=C(C)[C@H]1C(=O)c2c3c(cc4c5c(n1c24)[C@@]1(C)C(CC[C@H]2[C@](C)(/C=C/C=C\C(N)=O)[C@@H](O)CC[C@@]21C)C5)C1=CC(C)(C)OC(C)(C)C1[C@@H]3O (some centres undefined)
Second: C=C(C)[C@H]1C(=O)c2c3c(cc4c5c(n1c24)[C@@]1(C)C(CC[C@H]2[C@](C)(/C=C/C=C/C(N)=O)[C@@H](O)CC[C@@]21C)C5)C1=CC(C)(C)OC(C)(C)C1[C@@H]3O (some centres undefined)
The Activity of the first is higher: 10 p.p.m for the first, 1 p.p.m for the second.

C=CC/C(=C\C=C\[C@]1(C)[C@@H](O)CC[C@@]2(C)[C@H]1CCC1Cc3c(n4c5c(c6c(cc35)C3=CC(C)(C)OC(C)(C)C3[C@@H]6O)C(=O)[C@@H]4C(=C)C)[C@@]12C)C(=O)OC (some centres undefined) and C=C/C=C/[C@]1(C)[C@@H](O)CC[C@@]2(C)[C@H]1CCC1Cc3c(n4c5c(c6c(cc35)C3=CC(C)(C)OC(C)(C)C3[C@@H]6O)C(=O)[C@@H]4C(=C)C)[C@@]12C (some centres undefined) are the same in Activity: 10 p.p.m for the first, 10 p.p.m for the second.

First: C=C(C)[C@H]1C(=O)c2c3c(cc4c5c(n1c24)[C@@]1(C)C(CC[C@H]2[C@](C)(/C=C/C(C)=C/C(=O)NC(C)C)[C@@H](O)CC[C@@]21C)C5)C1=CC(C)(C)OC(C)(C)C1[C@@H]3O (some centres undefined)
Second: C=C(C)[C@H]1C(=O)c2c3c(cc4c5c(n1c24)[C@@]1(C)C(CC[C@H]2[C@](C)(/C=C/C(C)=C/C(=O)NCC)[C@@H](O)CC[C@@]21C)C5)C1=CC(C)(C)OC(C)(C)C1[C@@H]3O (some centres undefined)
The Activity of the first is lower: 1 p.p.m for the first, 10 p.p.m for the second.

Going from C=C(C)[C@H]1C(=O)c2c3c(cc4c5c(n1c24)[C@@]1(C)C(CC[C@H]2[C@](C)(/C=C/C=C/C(=O)NC(C)(C)C)[C@@H](O)CC[C@@]21C)C5)C1=CC(C)(C)OC(C)(C)C1[C@@H]3O (some centres undefined) to C=C(C)[C@H]1C(=O)c2c3c(cc4c5c(n1c24)[C@@]1(C)C(CC[C@H]2[C@](C)(/C=C/C=C/C(=O)OC(C)(C)C)[C@@H](O)CC[C@@]21C)C5)C1=CC(C)(C)OC(C)(C)C1[C@@H]3O (some centres undefined), the Activity rises from 1 p.p.m to 10 p.p.m.

C=C(C)[C@H]1C(=O)c2c3c(cc4c5c(n1c24)[C@@]1(C)C(CC[C@H]2[C@](C)(/C=C/C=C(\C#N)C(=O)N4CCCC4)[C@@H](O)CC[C@@]21C)C5)C1=CC(C)(C)OC(C)(C)C1[C@@H]3O (some centres undefined) and C=C(C)[C@H]1C(=O)c2c3c(cc4c5c(n1c24)[C@@]1(C)C(CC[C@H]2[C@](C)(/C=C/C=C(\CC)C(=O)N4CCCC4)[C@@H](O)CC[C@@]21C)C5)C1=CC(C)(C)OC(C)(C)C1[C@@H]3O (some centres undefined) are the same in Activity: 10 p.p.m for the first, 10 p.p.m for the second.

C=C(C)[C@H]1C(=O)c2c3c(cc4c5c(n1c24)[C@@]1(C)C(CC[C@H]2[C@](C)(/C=C/C=C(\F)C(=O)NCC)[C@@H](O)CC[C@@]21C)C5)C1=CC(C)(C)OC(C)(C)C1[C@@H]3O (some centres undefined) and C=C(C)[C@H]1C(=O)c2c3c(cc4c5c(n1c24)[C@@]1(C)C(CC[C@H]2[C@](C)(/C=C/C=C/C(=O)NCC)[C@@H](O)CC[C@@]21C)C5)C1=CC(C)(C)OC(C)(C)C1[C@@H]3O (some centres undefined) are the same in Activity: 1 p.p.m for the first, 1 p.p.m for the second.

C=C(C)[C@H]1C(=O)c2c3c(cc4c5c(n1c24)[C@@]1(C)C(CC[C@H]2[C@](C)(/C=C/C=C(\C#N)c4nc6ccccc6[nH]4)[C@@H](O)CC[C@@]21C)C5)C1=CC(C)(C)OC(C)(C)C1[C@@H]3O (some centres undefined) and C=C(C)[C@H]1C(=O)c2c3c(cc4c5c(n1c24)[C@@]1(C)C(CC[C@H]2[C@](C)(/C=C/C=C/C(=O)NCc4ccccc4)[C@@H](O)CC[C@@]21C)C5)C1=CC(C)(C)OC(C)(C)C1[C@@H]3O (some centres undefined) are the same in Activity: 10 p.p.m for the first, 10 p.p.m for the second.

Compared with C=C(C)[C@H]1C(=O)c2c3c(cc4c5c(n1c24)[C@@]1(C)C(CC[C@H]2[C@](C)(/C=C/C=C/C(=O)N4CCCC4)[C@@H](O)CC[C@@]21C)C5)C1=CC(C)(C)OC(C)(C)C1[C@@H]3O (some centres undefined), C=C(C)[C@H]1C(=O)c2c3c(cc4c5c(n1c24)[C@@]1(C)C(CC[C@H]2[C@](C)(/C=C/C=C/C(=O)O)[C@@H](O)CC[C@@]21C)C5)C1=CC(C)(C)OC(C)(C)C1[C@@H]3O (some centres undefined) is higher in Activity: 1 p.p.m for the first, 10 p.p.m for the second.

Going from C=C(C)[C@H]1C(=O)c2c3c(cc4c5c(n1c24)[C@@]1(C)C(CC[C@H]2[C@](C)(/C=C/C=C(\OC)C(=O)NC(C)(C)C)[C@@H](O)CC[C@@]21C)C5)C1=CC(C)(C)OC(C)(C)C1C3 (some centres undefined) to C=C(C)[C@H]1C(=O)c2c3c(cc4c5c(n1c24)[C@@]1(C)C(CC[C@H]2[C@](C)(/C=C/C=C/C(C)=O)[C@@H](O)CC[C@@]21C)C5)C1=CC(C)(C)OC(C)(C)C1[C@@H]3O (some centres undefined), the Activity falls from over 10 p.p.m to 10 p.p.m.

Going from C=C(C)[C@H]1C(=O)c2c3c(cc4c5c(n1c24)[C@@]1(C)C(CC[C@H]2[C@](C)(/C=C/C(C)=C/C(=O)O)[C@@H](O)CC[C@@]21C)C5)C1=CC(C)(C)OC(C)(C)C1[C@@H]3O (some centres undefined) to C=C(C)[C@H]1C(=O)c2c3c(cc4c5c(n1c24)[C@@]1(C)C(CC[C@H]2[C@](C)(/C=C/C(C)=C/C(=O)NC4CC4)[C@@H](O)CC[C@@]21C)C5)C1=CC(C)(C)OC(C)(C)C1[C@@H]3O (some centres undefined), the Activity falls from 10 p.p.m to 1 p.p.m.

Compared with C=CCOC(=O)/C=C/C=C/[C@]1(C)[C@@H](O)CC[C@@]2(C)[C@H]1CCC1Cc3c(n4c5c(c6c(cc35)C3=CC(C)(C)OC(C)(C)C3[C@@H]6O)C(=O)[C@@H]4C(=C)C)[C@@]12C (some centres undefined), C=C(C)[C@H]1C(=O)c2c3c(cc4c5c(n1c24)[C@@]1(C)C(CC[C@H]2[C@](C)(/C=C/C=C/C(=O)OCc4ccccc4)[C@@H](O)CC[C@@]21C)C5)C1=CC(C)(C)OC(C)(C)C1[C@@H]3O (some centres undefined) is higher in Activity: 1 p.p.m for the first, 10 p.p.m for the second.
